Assay results from ChEMBL document CHEMBL1142563, “Isolation and structure of phakellistatin 14 from the Western Pacific marine sponge Phakellia sp” (2005).
≈ marks a conversion by molar mass, not a printed value. Where a SMILES comes first, the peptide text is derived from it. [ ]: non-standard residue; d: D form. Met(O) = CS(=O)CC[C@H](N)C(=O)O

Tested on: P388
Experiment: Cytotoxicity against mouse P388 cells
Assay type: functional
Conditions: read-out: ED50 (the source's name)

CC[C@H](C)[C@@H]1NC(=O)[C@H](C)NC(=O)[C@H](CC[S+](C)[O-])NC(=O)[C@H](C)NC(=O)[C@H](CC(=O)OC)NC(=O)[C@H](Cc2ccccc2)NC(=O)[C@@H]2CCCN2C1=O (stereo partly specified) [PHAKELLISTATIN 14] (cyclo(AIPFD(OMe)A[Met(O)]))
EC50: 5 µg/mL (≈ 6.44 µM)
